In ChEMBL document CHEMBL1201862, “PubChem BioAssay data set” (2004):
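Protocol summary: plate cells (96-well), add compound at 5 concentrations, incubate 48 h, interpolate endpoints linearly. At the GI50, growth is halved.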 Activity calls are given as the source filed them. No stated cut-off is given here; in the data, active = GI50 up to about 1.1 µM and inactive = higher.

Experiments:
Test in all cases: growth of human tumour cells (NCI), 48 h
A498 = tested on: A498
EKVX = tested on: EKVX
HCC 2998 = tested on: HCC 2998
HCT-15 = tested on: HCT-15
HOP-62 = tested on: HOP-62
HOP-92 = tested on: HOP-92
KM-20L2 = tested on: KM-20L2
M14 = tested on: M14
NCI-H23 = tested on: NCI-H23
NCI-H522 = tested on: NCI-H522
OVCAR-3 = tested on: OVCAR-3
OVCAR-4 = tested on: OVCAR-4
OVCAR-5 = tested on: OVCAR-5
SF-268 = tested on: SF-268
SK-OV-3 = tested on: SK-OV-3
SN12C = tested on: SN12C
SW-620 = tested on: SW-620
UO-31 = tested on: UO-31
MDA-MB-231 = tested on: MDA-MB-231
T47D = tested on: T47D

| Compound | GI50 (A498) | GI50 (EKVX) | GI50 (HCC 2998) | GI50 (HCT-15) | GI50 (HOP-62) | GI50 (HOP-92) | GI50 (KM-20L2) | GI50 (M14) | GI50 (NCI-H23) | GI50 (NCI-H522) | GI50 (OVCAR-3) | GI50 (OVCAR-4) | GI50 (OVCAR-5) | GI50 (SF-268) | GI50 (SK-OV-3) | GI50 (SN12C) | GI50 (SW-620) | GI50 (UO-31) | GI50 (MDA-MB-231) | GI50 (T47D) |
| --- | --- | --- | --- | --- | --- | --- | --- | --- | --- | --- | --- | --- | --- | --- | --- | --- | --- | --- | --- | --- |
| Nn1c(-c2ccccc2)nc2ccc(Br)cc2c1=O | 70.5 µM (inactive) | 31.9 µM (inactive) | 62.7 µM (inactive) | 40.8 µM | > 10 µM (inactive) | 12.8 µM (inactive) | > 100 µM (inactive) | 54.1 µM (inactive) | 81.5 µM (inactive) | 33.7 µM (inactive) | 24 µM (inactive) | 28.6 µM (inactive) | > 100 µM (inactive) | 30.7 µM (inactive) | 61.5 µM (inactive) | 42.7 µM (inactive) | 46.6 µM (inactive) | 24.4 µM (inactive) | – | – |
| C[Si](C)(C)/N=C1\N2C(=NC1(C(F)(F)F)C(F)(F)F)Sc1ccccc12 | > 50 µM (inactive) | > 50 µM (inactive) | > 50 µM (inactive) | > 50 µM | > 50 µM (inactive) | 29.9 µM (inactive) | > 50 µM (inactive) | > 50 µM (inactive) | > 50 µM (inactive) | > 50 µM (inactive) | > 50 µM (inactive) | > 50 µM (inactive) | > 50 µM (inactive) | > 50 µM (inactive) | > 50 µM (inactive) | > 50 µM (inactive) | > 50 µM (inactive) | > 50 µM (inactive) | – | – |
| COC(=O)C1(C(=O)OC)CC(=O)c2cc3c(cc2-c2c(cc(OC)c(OC)c2OC)C1)OCO3 | – | > 211 µM (inactive) | > 211 µM (inactive) | 204 µM | > 211 µM (inactive) | 26.8 µM (inactive) | > 211 µM (inactive) | – | > 211 µM (inactive) | 96.4 µM (inactive) | 98.2 µM (inactive) | – | 88.3 µM (inactive) | > 211 µM (inactive) | > 211 µM (inactive) | > 211 µM (inactive) | > 211 µM (inactive) | – | – | – |
| C[Si](C)(C)/C=C/CCC(C=O)(CCCl)c1ccccc1 (centres undefined) | 64.1 µM (inactive) | 26 µM (inactive) | 29.6 µM (inactive) | 19.5 µM | – | 28.1 µM (inactive) | 28.8 µM (inactive) | 28.3 µM (inactive) | 21.8 µM (inactive) | 13.9 µM (inactive) | 16.7 µM (inactive) | – | 25.5 µM (inactive) | 31.7 µM (inactive) | 56.9 µM (inactive) | 31.4 µM (inactive) | 28.6 µM (inactive) | 44.2 µM (inactive) | – | – |
| O=C1C(Cl)C(c2cccc(O)c2)N1n1cnc2ccccc2c1=O (centres undefined) | – | 64.3 µM (inactive) | > 100 µM (inactive) | > 100 µM | > 100 µM (inactive) | – | > 100 µM (inactive) | > 100 µM (inactive) | > 100 µM (inactive) | > 100 µM (inactive) | > 100 µM (inactive) | > 100 µM (inactive) | > 100 µM (inactive) | > 100 µM (inactive) | > 100 µM (inactive) | > 100 µM (inactive) | > 100 µM (inactive) | 15 µM (inactive) | – | – |
| Cc1cccc(-c2nnc3s/c(=C\c4ccc(N(C)C)cc4)c(=O)n23)c1 | > 100 µM (inactive) | > 100 µM (inactive) | > 100 µM (inactive) | – | > 100 µM (inactive) | > 100 µM (inactive) | > 100 µM (inactive) | > 100 µM (inactive) | > 100 µM (inactive) | > 100 µM (inactive) | > 100 µM (inactive) | > 100 µM (inactive) | > 100 µM (inactive) | > 100 µM (inactive) | > 100 µM (inactive) | > 100 µM (inactive) | > 100 µM (inactive) | > 100 µM (inactive) | – | – |
| O=C(Nc1ccc(F)cc1)C(=O)C(C1OC(=O)c2ccccc21)[N+](=O)[O-] (centres undefined) | > 100 µM (inactive) | > 100 µM (inactive) | > 100 µM (inactive) | > 100 µM | > 100 µM (inactive) | > 100 µM (inactive) | > 100 µM (inactive) | > 100 µM (inactive) | > 100 µM (inactive) | – | > 100 µM (inactive) | > 100 µM (inactive) | > 100 µM (inactive) | > 100 µM (inactive) | > 100 µM (inactive) | – | > 100 µM (inactive) | > 100 µM (inactive) | – | – |
| COc1cccc2c1C(=N)c1c(O)c3c(c(O)c1C2=O)C[C@@](O)(C(C)=O)C[C@@H]3OC1CC(N)C(O)C(C)O1 (some centres undefined) | 3 µM (inactive) | 1.42 µM (inactive) | 0.409 µM (active) | 3.27 µM | 0.125 µM (active) | 0.655 µM (active) | 0.000374 µM (active) | 0.00957 µM (active) | 0.00875 µM (active) | 0.163 µM (active) | – | 1.83 µM (inactive) | 0.000445 µM (active) | 0.00938 µM (active) | 0.43 µM (active) | 0.00771 µM (active) | 0.199 µM (active) | 0.00369 µM (active) | < 0.01 µM (active) | 0.0047 µM (active) |
